{
  "source": "patent US20170020867A1",
  "about": "(priority 2015, published 2017)",
  "key": {"[1]": {"system": "C Reactive Protein (CRP) level", "experiment": "Phase IIa clinical trial: C Reactive Protein (CRP) level", "assay_type": "in vivo, human"}, "[2]": {"system": "patients with moderate to severe active Crohn's disease", "experiment": "Phase IIa clinical trial: safety"}, "[3]": {"system": "patients with moderate to severe active Crohn's disease", "experiment": "Phase IIa clinical trial: Crohn's Disease Activity Index (CDAI)"}, "[4]": {"system": "patients with moderate to severe active Crohn's disease", "experiment": "Phase IIa clinical trial: corticosteroids decrease", "assay_type": "in vivo, human", "details": "among patients who maintained corticosteroids during the study", "text": "Fifteen patients were on corticosteroids prior to study entry."}, "[5]": {"system": "patients with moderate to severe active Crohn's disease", "details": "human, in vivo"}, "[6]": {"system": "human cord blood mast cells", "details": "cited from earlier work"}, "[7]": {"details": "week 8, OC dataset, ITT population, All"}, "[8]": {"details": "week 4, Observed Cases, ITT population"}, "[9]": {"details": "week 8, Observed Cases, ITT population"}, "[10]": {"details": "week 8, Observed Cases, ITT population, listed as masitinib"}, "[11]": {"details": "week 8, patients with CDAI >350 at baseline, ITT population"}, "[12]": {"details": "week 8, patients with CDAI >350 at baseline, ITT population, listed as masitinib"}},
  "note": "Entries after “also recorded” stand apart in the source; their conditions may differ.",
  "data": [
    {"compound": "Cc1ccc(NC(=O)c2ccc(CN3CCN(C)CC3)cc2)cc1Nc1nc(-c2cccnc2)cs1", "note": "[Masitinib, 4-(4-methylpiperazin-1-ylmethyl)-N-[4-methyl-3-(4-pyridin-3ylthiazol-2-ylamino)phenyl]benzamide]", "values": [
      {"measurement": "CRP level change from baseline", "setting": "[1]; patients previously treated with anti-TNF", "value": "−30", "unit": "%"},
      {"measurement": "CRP absolute change, Median", "setting": "[1]; [7]", "value": -19.0, "unit": "mg/L"},
      {"measurement": "CRP mean absolute change ± SD", "setting": "[1]; [7]", "value": "-19.7 ± 21.8", "unit": "mg/L"},
      {"measurement": "tolerability", "setting": "[2]; 8 weeks of observation, 4.5 or 6 mg/kg/day oral in two daily intakes", "value": "well tolerated; also recorded: well-tolerated"},
      {"measurement": "patients who experienced at least one adverse event (AE)", "setting": "[2]; during the treatment", "value": 94, "unit": "%"},
      {"measurement": "adverse event abdominal pain, patients", "setting": "[2]; human, in vivo", "value": 22, "unit": "%"},
      {"measurement": "adverse event asthenia, patients", "setting": "[2]; human, in vivo", "value": 33, "unit": "%"},
      {"measurement": "adverse event nausea, patients", "setting": "[2]; human, in vivo", "value": 28, "unit": "%"},
      {"measurement": "adverse event vomiting, patients", "setting": "[2]; human, in vivo", "value": 33, "unit": "%"},
      {"measurement": "mean CDAI decrease", "setting": "[3]; 4 weeks after the initiation of treatment", "value": 80, "unit": "units"},
      {"measurement": "additional remission, number of patients", "setting": "[3]; after the first 8-week period", "value": "one"},
      {"measurement": "Complete remission, number of patients", "setting": "[3]; during the first 8-week period", "value": "two"},
      {"measurement": "Complete remission, patients", "setting": "[3]; patient presenting with CDAI>350 at baseline", "value": 10, "unit": "%"},
      {"measurement": "CDAI enhanced response (at least 100 pts decrease), patients", "setting": "[3]; week 4, LOCF, ITT population", "value": "5 (31.3%)"},
      {"measurement": "CDAI response (at least 70 pts decrease), patients", "setting": "[3]; week 4, LOCF, ITT population", "value": "8 (50.0%)"},
      {"measurement": "CDAI enhanced response (at least 100 pts decrease), patients", "setting": "[3]; [8]", "value": "5 (31.3%)"},
      {"measurement": "CDAI response (at least 70 pts decrease), patients", "setting": "[3]; [8]", "value": "8 (50.0%)"},
      {"measurement": "CDAI response (at least 70 pts decrease), patients", "setting": "[3]; week 4, Observed Cases, ITT population, listed as masitinib", "value": 50, "unit": "%"},
      {"measurement": "CDAI enhanced response (at least 100 pts decrease), patients", "setting": "[3]; week 8, LOCF, ITT population", "value": "5 (31.3%)"},
      {"measurement": "CDAI response (at least 70 pts decrease), patients", "setting": "[3]; week 8, LOCF, ITT population", "value": "7 (43.8%)"},
      {"measurement": "Mean CDAI absolute change from baseline (SD)", "setting": "[3]; week 8, LOCF, ITT population", "value": "−59.9 (112.2)"},
      {"measurement": "Median CDAI absolute change from baseline", "setting": "[3]; week 8, LOCF, ITT population", "value": "−64.5"},
      {"measurement": "Mean CDAI absolute change from baseline (SD)", "setting": "[3]; week 8, OC, ITT population", "value": "−86.0 (128.9)"},
      {"measurement": "Median CDAI absolute change from baseline", "setting": "[3]; week 8, OC, ITT population", "value": "−101.0"},
      {"measurement": "Mean CDAI absolute change from baseline (SD)", "setting": "[3]; week 8, OC, ITT population, listed as masitinib", "value": "−86"},
      {"measurement": "CDAI enhanced response (at least 100 pts decrease), patients", "setting": "[3]; week 8, OC, ITT, L1", "value": "(100.0%)"},
      {"measurement": "Mean CDAI absolute change from baseline", "setting": "[3]; week 8, OC, ITT, L1", "value": "−153.0"},
      {"measurement": "Median CDAI absolute change from baseline", "setting": "[3]; week 8, OC, ITT, L1", "value": "−153.0"},
      {"measurement": "CDAI enhanced response (at least 100 pts decrease), patients", "setting": "[3]; week 8, OC, ITT, L1, listed as masitinib", "value": 100, "unit": "%"},
      {"measurement": "CDAI enhanced response (at least 100 pts decrease), patients", "setting": "[3]; week 8, OC, ITT, L2", "value": "(0.0%)"},
      {"measurement": "Mean CDAI absolute change from baseline", "setting": "[3]; week 8, OC, ITT, L2", "value": "−50.0"},
      {"measurement": "Median CDAI absolute change from baseline", "setting": "[3]; week 8, OC, ITT, L2", "value": "−50.0"},
      {"measurement": "CDAI enhanced response (at least 100 pts decrease), patients", "setting": "[3]; week 8, OC, ITT, L3", "value": "(57.1%)"},
      {"measurement": "Mean CDAI absolute change from baseline", "setting": "[3]; week 8, OC, ITT, L3", "value": "−86.7"},
      {"measurement": "Median CDAI absolute change from baseline", "setting": "[3]; week 8, OC, ITT, L3", "value": "−103.0"},
      {"measurement": "CDAI enhanced response (at least 100 pts decrease), patients", "setting": "[3]; week 8, OC, ITT, L3, listed as masitinib", "value": 57, "unit": "%"},
      {"measurement": "CDAI response (at least 70 pts decrease), patients", "setting": "[3]; week 8, OC, ITT, patients naive or previously treated with corticosteroids (L1)", "value": "(100.0%)"},
      {"measurement": "CDAI response (at least 70 pts decrease), patients", "setting": "[3]; week 8, OC, ITT, patients previously treated with azathioprine (Immurel) or immunotherapy (L2)", "value": "(50.0%)"},
      {"measurement": "CDAI response (at least 70 pts decrease), patients", "setting": "[3]; week 8, OC, ITT, patients previously treated with biological agent (L3)", "value": "(71.4%)"},
      {"measurement": "CDAI response (at least 70 pts decrease), patients", "setting": "[3]; week 8, OC, ITT, patients previously treated with biological agent (L3), listed as masitinib", "value": 71, "unit": "%"},
      {"measurement": "CDAI enhanced response (at least 100 pts decrease), patients", "setting": "[3]; [9]", "value": "5 (50.0%)"},
      {"measurement": "CDAI response (at least 70 pts decrease), patients", "setting": "[3]; [9]", "value": "7 (70.0%)"},
      {"measurement": "improvement of mean disease activity", "setting": "[3]; [9]", "value": 23, "unit": "%"},
      {"measurement": "CDAI enhanced response (at least 100 pts decrease), patients", "setting": "[3]; [10]", "value": 50, "unit": "%"},
      {"measurement": "CDAI response (at least 70 pts decrease), patients", "setting": "[3]; [10]", "value": 70, "unit": "%"},
      {"measurement": "CDAI absolute change from baseline Mean (SD)", "setting": "[3]; [11]", "value": "−152.3 (78.5)"},
      {"measurement": "CDAI absolute change from baseline, Median", "setting": "[3]; [11]", "value": "−116.5"},
      {"measurement": "CDAI enhanced response (at least 100 pts decrease), patients", "setting": "[3]; [11]", "value": "4 (66.7%)"},
      {"measurement": "CDAI response (at least 70 pts decrease), patients", "setting": "[3]; [11]", "value": "6 (100.0%)"},
      {"measurement": "CDAI enhanced response (at least 100 pts decrease), patients", "setting": "[3]; [12]", "value": 67, "unit": "%"},
      {"measurement": "CDAI response (at least 70 pts decrease), patients", "setting": "[3]; [12]", "value": 100, "unit": "%"},
      {"measurement": "patients whose corticosteroid dose was decreased during study", "setting": "[4]", "value": 50, "unit": "%"},
      {"measurement": "death", "setting": "[5]", "value": "no death"},
      {"measurement": "patients with a serious adverse event", "setting": "[5]; 8 weeks", "value": 44, "unit": "%"},
      {"measurement": "FcεRI-mediated degranulation", "setting": "[6]", "value": "inhibition of FcεRI-mediated degranulation"}
    ]}
  ]
}
